Patent US10072001B2, “Tank-binding kinase inhibitor compounds” (Gilead Sciences, Inc., priority 2014, dated 2018)

Columns and labels:
[1] = target: IKKε (Homo sapiens (Human), UniProt Q14164); assay: TR-FRET kinase assay, IKKε; assay type: biochemical; details: full length recombinant IKKε 0.3 nM, 2x Km ATP, 1 μM peptide, 240 min at 25° C.; geometric mean of minimum four determinations
Source text: Biological Assay for TBK1 and IKKs:

[2] = target: TBK1 (Homo sapiens (Human), UniProt Q9UHD2); assay: TR-FRET kinase assay, TBK1; details: read-out: TBK1-IC50; full length recombinant TBK1 2.5 nM, 2x Km ATP, 1 μM peptide, 240 min at 25° C.; geometric mean of minimum four determinations
Sequence of TBK1 (Q9UHD2 whole entry): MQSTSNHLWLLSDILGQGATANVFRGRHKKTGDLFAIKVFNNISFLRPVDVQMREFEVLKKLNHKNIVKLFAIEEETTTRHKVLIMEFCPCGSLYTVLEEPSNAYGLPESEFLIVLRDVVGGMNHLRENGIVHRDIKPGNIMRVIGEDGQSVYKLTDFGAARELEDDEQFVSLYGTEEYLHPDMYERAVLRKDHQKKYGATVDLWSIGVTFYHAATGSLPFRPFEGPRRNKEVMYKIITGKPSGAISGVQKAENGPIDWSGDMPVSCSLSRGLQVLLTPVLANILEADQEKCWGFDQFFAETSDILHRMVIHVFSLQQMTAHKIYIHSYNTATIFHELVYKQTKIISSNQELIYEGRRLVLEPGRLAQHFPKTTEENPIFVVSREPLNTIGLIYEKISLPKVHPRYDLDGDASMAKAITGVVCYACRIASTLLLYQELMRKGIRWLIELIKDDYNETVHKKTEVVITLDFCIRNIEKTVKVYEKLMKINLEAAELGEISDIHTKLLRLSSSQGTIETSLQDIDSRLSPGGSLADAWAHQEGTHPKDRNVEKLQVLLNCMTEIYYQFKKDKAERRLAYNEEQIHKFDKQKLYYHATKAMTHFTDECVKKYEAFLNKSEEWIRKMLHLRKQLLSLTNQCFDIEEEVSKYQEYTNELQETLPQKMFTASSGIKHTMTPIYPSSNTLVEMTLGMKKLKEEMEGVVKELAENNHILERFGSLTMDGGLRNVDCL

Sequence of IKKε (Q14164 whole entry): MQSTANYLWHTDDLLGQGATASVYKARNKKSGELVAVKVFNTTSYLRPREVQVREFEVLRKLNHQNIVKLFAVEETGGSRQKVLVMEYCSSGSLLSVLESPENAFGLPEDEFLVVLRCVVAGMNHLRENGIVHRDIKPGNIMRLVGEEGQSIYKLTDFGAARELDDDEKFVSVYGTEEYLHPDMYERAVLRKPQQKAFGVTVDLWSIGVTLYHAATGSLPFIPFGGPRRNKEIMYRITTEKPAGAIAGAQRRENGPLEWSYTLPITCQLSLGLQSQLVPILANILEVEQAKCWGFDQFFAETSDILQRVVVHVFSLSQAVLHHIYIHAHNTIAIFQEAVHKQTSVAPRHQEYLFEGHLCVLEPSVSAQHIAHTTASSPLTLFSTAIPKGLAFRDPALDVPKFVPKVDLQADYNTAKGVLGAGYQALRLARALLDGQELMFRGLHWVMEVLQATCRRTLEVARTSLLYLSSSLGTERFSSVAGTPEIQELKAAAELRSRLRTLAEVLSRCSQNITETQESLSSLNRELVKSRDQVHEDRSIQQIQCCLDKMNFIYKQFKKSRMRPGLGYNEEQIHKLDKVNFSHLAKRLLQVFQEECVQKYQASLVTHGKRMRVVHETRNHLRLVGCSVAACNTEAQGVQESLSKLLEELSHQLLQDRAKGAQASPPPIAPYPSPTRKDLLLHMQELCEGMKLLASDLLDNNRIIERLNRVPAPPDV

SMILES | IC50 [1] | IC50 [2]
N#Cc1cc(-c2ccnc3[nH]c(C4=CCNCC4)cc23)ccc1OC1CCOCC1 [Example 5, 2-((tetrahydro-2H-pyran-4-yl)oxy)-5-(2-(1,2,3,6-tetrahydropyridin-4-yl)-1H-pyrrolo[2,3-b]pyridin-4-yl)benzonitrile] | 39.7 nM | 29.8 nM
N#Cc1nc(-c2ccnc3[nH]c(-c4ccc(N5CCOCC5)cc4)cc23)ccc1OC1CCOCC1 [Example 86, 6-(2-(4-morpholinophenyl)-1H-pyrrolo[2,3-b]pyridin-4-yl)-3-((tetrahydro-2H-pyran-4-yl)oxy)picolinonitrile] | 13.8 nM | 3.89 nM
CC1(C)C(=O)Nc2cc(-c3cc4c(-c5ccc(OC6CCOCC6)c(C#N)c5)ncnc4[nH]3)ccc21 [Example 188, 5-(6-(3,3-dimethyl-2-oxoindolin-6-yl)-7H-pyrrolo[2,3-d]pyrimidin-4-yl)-2-((tetrahydro-2H-pyran-4-yl)oxy)benzonitrile] | 8.46 nM | 1.69 nM
N#Cc1cc(-c2ccnc3[nH]c(-c4ccc5[nH]ccc5c4)cc23)ccc1OC1CCOCC1 [Example 45, 5-(2-(1H-indol-5-yl)-1H-pyrrolo[2,3-b]pyridin-4-yl)-2-((tetrahydro-2H-pyran-4-yl)oxy)benzonitrile] | 32.2 nM | 32 nM
N#Cc1cc(-c2ccnc3[nH]c(-c4ccc(N5CCOCC5)cc4)cc23)ccc1N1CCCC1=O [Example 13, 5-(2-(4-morpholinophenyl)-1H-pyrrolo[2,3-b]pyridin-4-yl)-2-(2-oxopyrrolidin-1-yl)benzonitrile] | 182 nM | 24.9 nM
N#Cc1cc(-c2ccnc3[nH]c(-c4ccc(N5CCOCC5)c(F)c4)cc23)ccc1OC1CCOCC1 [Example 77, 5-(2-(3-fluoro-4-morpholinophenyl)-1H-pyrrolo[2,3-b]pyridin-4-yl)-2-((tetrahydro-2H-pyran-4-yl)oxy)benzonitrile] | 38 nM | 10.9 nM
CN(C)Cc1ccc(-c2nc3c(-c4ccc(OC5CCN(C(=O)C(F)F)CC5)c(C#N)c4)ncnc3[nH]2)cc1 [Example 267, 2-((1-(2,2-difluoroacetyl)piperidin-4-yl)oxy)-5-(8-(4-((dimethylamino)methyl)phenyl)-9H-purin-6-yl)benzonitrile] | 1000 nM | 1000 nM
N#Cc1cc(-c2ccnc3[nH]c(-c4ccc(N5CCOCC5)cc4)cc23)ccc1N1CC(O)C1 [Example 193, 2-(3-hydroxyazetidin-1-yl)-5-(2-(4-morpholinophenyl)-1H-pyrrolo[2,3-b]pyridin-4-yl)benzonitrile] | 15.5 nM | 3.33 nM
N#Cc1cc(-c2ccnc3[nH]c(-c4ccc(N5CCOCC5)cc4)nc23)ccc1O[C@@H]1CCNC1 [Example 195, (R)-5-(2-(4-morpholinophenyl)-3H-imidazo[4,5-b]pyridin-7-yl)-2-(pyrrolidin-3-yloxy)benzonitrile] | 62.3 nM | 17.7 nM
COc1cc(-c2cc3c(-c4ccc(OC5CCNCC5)c(C#N)c4)ncnc3[nH]2)ccc1N1CCOCC1 [Example 122, 5-(6-(3-methoxy-4-morpholinophenyl)-7H-pyrrolo[2,3-d]pyrimidin-4-yl)-2-(piperidin-4-yloxy)benzonitrile] | 115 nM | 21.2 nM
N#Cc1cc(-c2ncnc3[nH]c(-c4ccc(N5CCOCC5)cc4)cc23)ccc1OC1CCN(C(=O)CO)CC1 [Example 220, 2-((1-(2-hydroxyacetyl)piperidin-4-yl)oxy)-5-(6-(4-morpholinophenyl)-7H-pyrrolo[2,3-d]pyrimidin-4-yl)benzonitrile] | 1.48 nM | 0.503 nM
N#Cc1cc(-c2ncnc3[nH]c(-c4cnc5c(c4)NCCO5)cc23)ccc1OC1CCOCC1 [Example 189, 5-(6-(2,3-dihydro-1H-pyrido[2,3-b][1,4]oxazin-7-yl)-7H-pyrrolo[2,3-d]pyrimidin-4-yl)-2-((tetrahydro-2H-pyran-4-yl)oxy)benzonitrile] | 7.99 nM | 4.36 nM
N#Cc1cc(-c2ncnc3[nH]c(-c4ccc(C5CCN(CC(F)F)CC5)cc4)nc23)ccc1OC1CCN(C(=O)CO)CC1 [Example 255, 5-(8-(4-(1-(2,2-difluoroethyl)piperidin-4-yl)phenyl)-9H-purin-6-yl)-2-((1-(2-hydroxyacetyl)piperidin-4-yl)oxy)benzonitrile] | 3.48 nM | 1.53 nM
N#Cc1cc(-c2ncnc3[nH]c(-c4cccc(N5CCOCC5)c4)nc23)ccc1OC1CCOCC1 [Example 211, 5-(8-(3-morpholinophenyl)-9H-purin-6-yl)-2-((tetrahydro-2H-pyran-4-yl)oxy)benzonitrile] | 25.3 nM | 9.57 nM
N#Cc1cc(-c2ncnc3[nH]c(-c4cccc(N5CCOCC5)c4)cc23)ccc1CN1CCOCC1 [Example 113, 2-(morpholinomethyl)-5-(6-(3-morpholinophenyl)-7H-pyrrolo[2,3-d]pyrimidin-4-yl)benzonitrile] | 1000 nM | 69.1 nM
COc1ccc(-c2ccnc3[nH]c(-c4ccc(N5CCOCC5)cc4)cc23)cc1C#N [Example 34, 2-methoxy-5-(2-(4-morpholinophenyl)-1H-pyrrolo[2,3-b]pyridin-4-yl)benzonitrile] | > 1000 nM | 89.8 nM
Cc1cc(N2CCOCC2)ccc1-c1cc2c(-c3ccc(OC4CCNCC4)c(C#N)c3)ncnc2[nH]1 [Example 120, 5-(6-(2-methyl-4-morpholinophenyl)-7H-pyrrolo[2,3-d]pyrimidin-4-yl)-2-(piperidin-4-yloxy)benzonitrile] | 102 nM | 22.2 nM
CNC(=O)c1ccc(-c2cc3c(-c4ccc(OC5CCOCC5)c(C#N)c4)ccnc3[nH]2)cc1 [Example 41, 4-(4-(3-cyano-4-((tetrahydro-2H-pyran-4-yl)oxy)phenyl)-1H-pyrrolo[2,3-b]pyridin-2-yl)-N-methylbenzamide] | 5.59 nM | 3.08 nM
N#Cc1cc(-c2ccnc3[nH]c(-c4ccc(N5CCOCC5)cc4)cc23)ccc1N1CCCC1 [Example 49, 5-(2-(4-morpholinophenyl)-1H-pyrrolo[2,3-b]pyridin-4-yl)-2-(pyrrolidin-1-yl)benzonitrile] | > 78 nM | 7.05 nM
CS(=O)(=O)c1ccc(-c2cc3c(-c4ccc(OC5CCOCC5)c(C#N)c4)ccnc3[nH]2)cc1 [Example 42, 5-(2-(4-(methylsulfonyl)phenyl)-1H-pyrrolo[2,3-b]pyridin-4-yl)-2-((tetrahydro-2H-pyran-4-yl)oxy)benzonitrile] | 6.42 nM | 3.75 nM
N#Cc1cc(-c2ccnc3[nH]c(-c4ccc(N5CCOCC5)cc4)nc23)ccc1OCC1CC1 [Example 301, 2-(cyclopropylmethoxy)-5-(2-(4-morpholinophenyl)-3H-imidazo[4,5-b]pyridin-7-yl)benzonitrile] | > 1000 nM | 43.5 nM
N#Cc1cc(-c2ncnc3[nH]c(-c4ccc5c(c4)NCCO5)cc23)ccc1OC1CCOCC1 [Example 191, 5-(6-(3,4-dihydro-2H-benzo[b][1,4]oxazin-6-yl)-7H-pyrrolo[2,3-d]pyrimidin-4-yl)-2-((tetrahydro-2H-pyran-4-yl)oxy)benzonitrile] | 12.7 nM | 5.09 nM
CC(C)(C)OC(=O)N1CC[C@H](Oc2ccc(-c3ccnc4[nH]c(-c5ccc(N6CCOCC6)cc5)cc34)cc2C#N)C1 [Example 25, (S)-tert-butyl 3-(2-cyano-4-(2-(4-morpholinophenyl)-1H-pyrrolo[2,3-b]pyridin-4-yl)phenoxy)pyrrolidine-1-carboxylate] | 306 nM | 115 nM
N#Cc1cc(-c2ccnc3[nH]c(-c4cccnc4)cc23)ccc1OC1CCOCC1 [Example 7, 5-(2-(pyridin-3-yl)-1H-pyrrolo[2,3-b]pyridin-4-yl)-2-((tetrahydro-2H-pyran-4-yl)oxy)benzonitrile] | 17 nM | 11.8 nM
N#Cc1cc(-c2ccnc3[nH]c(-c4ccc(C5(O)COC5)cc4)cc23)ccc1OC1CCOCC1 [Example 8, 5-(2-(4-(3-hydroxyoxetan-3-yl)phenyl)-1H-pyrrolo[2,3-b]pyridin-4-yl)-2-((tetrahydro-2H-pyran-4-yl)oxy)benzonitrile] | 6.99 nM | 3.09 nM
N#CCC(=O)N1CC[C@@H](Oc2ccc(-c3ccnc4[nH]c(-c5ccc(N6CCOCC6)cc5)cc34)cc2C#N)C1 [Example 16, (R)-2-((1-(2-cyanoacetyl)pyrrolidin-3-yl)oxy)-5-(2-(4-morpholinophenyl)-1H-pyrrolo[2,3-b]pyridin-4-yl)benzonitrile] | 13.8 nM | 4.32 nM
CC(C)(C)OC(=O)N1CC[C@@H](Oc2ccc(-c3ccnc4[nH]c(-c5ccc(N6CCOCC6)cc5)cc34)cc2C#N)C1 [Example 17, (R)-tert-butyl 3-(2-cyano-4-(2-(4-morpholinophenyl)-1H-pyrrolo[2,3-b]pyridin-4-yl)phenoxy)pyrrolidine-1-carboxylate] | 394 nM | 146 nM
Cn1cc(-c2nc3c(-c4ccc(OC5CCOCC5)c(C#N)c4)ncnc3[nH]2)cn1 [Example 213, 5-(8-(1-methyl-1H-pyrazol-4-yl)-9H-purin-6-yl)-2-((tetrahydro-2H-pyran-4-yl)oxy)benzonitrile] | 30.2 nM | 12.4 nM
N#Cc1cc(-c2ccnc3[nH]c(-c4ccc(N5CCN(C(=O)CO)CC5)cc4)cc23)ccc1OC1CCOCC1 [Example 56, 5-(2-(4-(4-(2-hydroxyacetyl)piperazin-1-yl)phenyl)-1H-pyrrolo[2,3-b]pyridin-4-yl)-2-((tetrahydro-2H-pyran-4-yl)oxy)benzonitrile] | 15.8 nM | 2.02 nM
COc1ccc(-c2cc3c(-c4ccc(OC5CCN(C(=O)CO)CC5)c(C#N)c4)ncnc3[nH]2)c(C)c1 [Example 131, 2-((1-(2-hydroxyacetyl)piperidin-4-yl)oxy)-5-(6-(4-methoxy-2-methylphenyl)-7H-pyrrolo[2,3-d]pyrimidin-4-yl)benzonitrile] | 12.4 nM | 5.68 nM
